Assay type in all cases: in vivo
For data set [1], the system named is Matricaria inodora (MATIN). In words: Post-emergence herbicidal action against MATIN. An outline of the steps:
(§1)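 Greenhouse plants sprayed at the one-leaf stage, 2–3 weeks after sowing, with WP or EC formulations plus 0.5% additive at 600 l/ha water. Activity rated visually after about 3 weeks versus untreated controls (100% = dead, 0% = like control), at 320 g/ha or lower.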

For data set [2], the system named is Verconica persica (VERPE). In words: Post-emergence herbicidal action against VERPE. An outline of the steps: as §1
The subject of data set [3] is Pharbitis purpurea (PHBPU). Kind of data set: Post-emergence herbicidal action against PHBPU. An outline of the steps:
as §1

For data set [4], the system named is Polygonum convolvulus (POLCO). Kind of data set: Post-emergence herbicidal action against POLCO. An outline of the steps:
as §1

Data set [5] deals with Amaranthus retroflexus (AMARE). Kind of data set: Post-emergence herbicidal action against AMARE. The conditions noted are these: 320 g/ha, visual rating about 3 weeks after treatment. An outline of the steps: as §1
Data set [6] deals with Echinochloa crus-galli (ECHCG). Kind of data set: Post-emergence herbicidal action against ECHCG. An outline of the steps:
as §1

Data set [7] relates to Viola tricolor (VIOTR). Kind of data set: Post-emergence herbicidal action against VIOTR. An outline of the steps: as §1
The subject of data set [8] is Setaria viridis (SETVI). Kind of data set: Post-emergence herbicidal action against SETVI. An outline of the steps:
as §1

The subject of data set [9] is Digitaria sanguinalis (DIGSA). In words: Post-emergence herbicidal action against DIGSA. The conditions noted are these: visual rating about 3 weeks after treatment. An outline of the steps: as §1
Data set [10] relates to Triticum aestivum (TRZAS). The conditions noted are these: crop plant compatibility, 20 g/ha, effect vs untreated controls. An outline of the steps: (§2)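 Effects were read visually as % versus untreated controls (0% = no effect, 100% = death) about 3 weeks post-treatment. Application was a post-emergence spray at the one-leaf stage of WP/EC formulations with 0.5% additive at 600 l/ha. Different dosages are denoted a, b and c.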

In data set [11] the test system is Oryza sativa (ORYSA). The conditions noted are these: crop plant compatibility. An outline of the steps:
as §2

Data set [12] concerns Lolium rigidum (LOLRI). Kind of data set: Post-emergence herbicidal action against LOLRI. An outline of the steps: as §1
Data set [13] deals with Alopecurus myosuroides (ALOMY). Kind of data set: Post-emergence herbicidal action against ALOMY. The conditions noted are these: 320 g/ha, visual rating about 3 weeks after treatment vs untreated controls (100% = plants have died, 0% = like control plants). An outline of the steps: as §1
Data set [14] deals with Avena fatua (AVEFA). Kind of data set: Post-emergence herbicidal action against AVEFA. The conditions noted are these: visual rating about 3 weeks after treatment. An outline of the steps:
as §1

The test system of data set [15] is Zea mays (ZEAMX). The conditions noted are these: for Post-emergence action against ZEAMX in % (crop plant compatibility): 20 g/ha, effect in comparison to untreated controls; for Post-emergence action against ZEAMX in %: crop plant compatibility, 80 g/ha, effect vs untreated controls. An outline of the steps: as §2
The test system of data set [16] is Abutilon theophrasti (ABUTH). Kind of data set: Post-emergence herbicidal action against ABUTH. The conditions noted are these: visual rating about 3 weeks after treatment vs untreated controls (100% = plants have died, 0% = like control plants). An outline of the steps: as §1
Setting [17] is: 20 g/ha, effect vs untreated controls.
[18] abbreviates: 80 g/ha, effect in comparison to untreated controls.

Read-outs that look alike come from different tables or passages of the source.

With `O=C(O)COc1nn(-c2ccccn2)c(-c2ccc(F)nc2)c1Cl` [Example I-266], the entries for the “Post-emergence action against MATIN in %” value in [1] (dosage 80 g/ha) and in data set [1] (dosage 320 g/ha) were 80% and 90%, respectively. Also, the “Post-emergence action against VERPE in %” value in [2] (320 g/ha, VERPE) came to 90%; in [2] (dosage 80 g/ha), 80%. For the same compound, the “Post-emergence action against PHBPU in %” value in data set [3] (dosage 80 g/ha) is reported as 80%; in data set [3] (dosage 320 g/ha), 90%. The results for the “Post-emergence action against POLCO in %” value in data set [4] (dosage 80 g/ha) and in data set [4] (dosage 320 g/ha) were 80% and 90%, respectively. In data set [5], the “Post-emergence action against AMARE in %” value was 90%. Besides, the entries for the “Post-emergence action against ECHCG in %” value in data set [6] (dosage 80 g/ha) and in [6] (dosage 320 g/ha) were 80% and 90%, respectively. Moreover, the figures for the “Post-emergence action against VIOTR in %” value in data set [7] (80 g/ha) and in data set [7] (320 g/ha) were 80% and 90%, respectively. Moreover, the “Post-emergence action against SETVI in %” value in data set [8] (dosage 320 g/ha) stood at 80%. Besides, the “Post-emergence action against DIGSA in %” value in data set [9] (320 g/ha) is on record as 90%. Further, the “Post-emergence action against TRZAS in %” value in data set [10] was 20%. Besides, in data set [11] (setting [17]), the “Post-emergence action against ORYSA in %” value stood at 20%. The “Post-emergence action against LOLRI in %” value in data set [12] (dosage 320 g/ha) is on record as 90%. Further, the “Post-emergence action against ALOMY in %” value in [13] came out at 90%.
On to `O=C(COc1nn(-c2ncccc2F)c(-c2ccc(F)nc2)c1C1CC1)OCC1CCCC1` [Example I-251], for which the “Post-emergence action against MATIN in %” value in data set [1] (dosage 320 g/ha) came out at 90%. In addition, the “Post-emergence action against VERPE in %” value in data set [2] (320 g/ha, VERPE) is on record as 90%; in [2] (dosage 80 g/ha), 80%. Moreover, in [5], the “Post-emergence action against AMARE in %” value was found to be 90%. For the same compound, the “Post-emergence action against ECHCG in %” value in data set [6] (dosage 80 g/ha) stood at 80%; in data set [6] (dosage 320 g/ha), 90%. Besides, the “Post-emergence action against VIOTR in %” value in data set [7] (320 g/ha) was determined as 90%. In addition, in data set [8] (dosage 320 g/ha), the “Post-emergence action against SETVI in %” value came out at 90%. For the same compound, the “Post-emergence action against DIGSA in %” value in data set [9] (80 g/ha) turned out to be 80%; in data set [9] (320 g/ha) it was 90%. For the same compound, the “Post-emergence action against AVEFA in %” value in [14] (320 g/ha) is recorded as 90%. Moreover, the “Post-emergence action against TRZAS in %” value in [10] is given as 10%. In [15], the “Post-emergence action against ZEAMX in % (crop plant compatibility)” value is recorded as 20%. Besides, the “Post-emergence action against ZEAMX in %” value in data set [15] is recorded as 20%. In data set [11] (setting [17]), the “Post-emergence action against ORYSA in %” value turned out to be 10%. The “Post-emergence action against LOLRI in %” value in data set [12] (dosage 80 g/ha) and in data set [12] (dosage 320 g/ha) was 90% throughout. For the same compound, the “Post-emergence action against ALOMY in %” value in data set [13] stood at 80%.
As to `O=C(COc1nn(-c2ncccc2F)c(-c2ccc(F)nc2)c1C1CC1)ON=C1CCCC1` [Example I-380], the “Post-emergence action against VERPE in %” value in data set [2] (320 g/ha, VERPE) is reported as 90%; in data set [2] (dosage 80 g/ha), 80%. In data set [4] (dosage 320 g/ha), the “Post-emergence action against POLCO in %” value came to 80%. The results for the “Post-emergence action against ECHCG in %” value in data set [6] (dosage 80 g/ha) and in data set [6] (dosage 320 g/ha) were 80% and 90%, respectively. Moreover, the “Post-emergence action against ABUTH in %” value stood at 80% in [16] (80 g/ha) and 90% in data set [16] (320 g/ha). For the same compound, the “Post-emergence action against VIOTR in %” value in data set [7] (80 g/ha) and in [7] (320 g/ha) was 90% in each case. The results for the “Post-emergence action against SETVI in %” value in data set [8] (dosage 80 g/ha) and in [8] (dosage 320 g/ha) were 80% and 90%, respectively. The “Post-emergence action against DIGSA in %” value in [9] (80 g/ha) turned out to be 80%; in data set [9] (320 g/ha), 90%. Also, the “Post-emergence action against AVEFA in %” value in data set [14] (80 g/ha) and in data set [14] (320 g/ha) was 90% throughout. In data set [10], the “Post-emergence action against TRZAS in %” value was found to be 20%. Also, in data set [15], the “Post-emergence action against ZEAMX in % (crop plant compatibility)” value stood at 0%. Also, in [15], the “Post-emergence action against ZEAMX in %” value is recorded as 20%. For the same compound, the “Post-emergence action against ORYSA in %” value in [11] (setting [17]) worked out at 0%; in data set [11] (setting [18]) it was 10%. Further, the “Post-emergence action against LOLRI in %” value in data set [12] (dosage 80 g/ha) and in [12] (dosage 320 g/ha) was 90% in each case. Besides, the “Post-emergence action against ALOMY in %” value in data set [13] was found to be 90%.
For `C[C@@H](Oc1nn(-c2ncccc2F)c(-c2ccnc(F)c2)c1Br)C(=O)O` [Example I-140], the “Post-emergence action against VERPE in %” value in [2] (320 g/ha, VERPE) amounted to 90%. The “Post-emergence action against POLCO in %” value in [4] (dosage 320 g/ha) stood at 90%. Further, in [5], the “Post-emergence action against AMARE in %” value worked out at 90%. Moreover, in data set [6] (dosage 320 g/ha), the “Post-emergence action against ECHCG in %” value came to 80%. Besides, in data set [16] (320 g/ha), the “Post-emergence action against ABUTH in %” value is given as 80%. Moreover, the “Post-emergence action against VIOTR in %” value in [7] (80 g/ha) and in [7] (320 g/ha) was 90% in each case. The “Post-emergence action against DIGSA in %” value in data set [9] (320 g/ha) came to 80%. Besides, in data set [14] (320 g/ha), the “Post-emergence action against AVEFA in %” value was 90%. In addition, the “Post-emergence action against TRZAS in %” value in data set [10] was found to be 10%. In addition, the “Post-emergence action against ORYSA in %” value in data set [11] (setting [17]) amounted to 0%; in data set [11] (setting [18]), 0%; in data set [11] (320 g/ha, effect in comparison to untreated controls), 10%. Also, the “Post-emergence action against LOLRI in %” value in data set [12] (dosage 320 g/ha) stood at 90%. Besides, the “Post-emergence action against ALOMY in %” value in [13] amounted to 100%.

Values taken from patent US20240041042A1, “1-(PYRIDYL)-5-AZINYLPYRAZOLE DERIVATIVES, AND THEIR USE FOR CONTROL OF UNDESIRED PLANT GROWTH” (Bayer Aktiengesellschaft, priority 2020, published 2024).
